Tested on: FoL (Fusarium wilt of tomato)
Assay: Wilt incidence pot study in tomato (AUDPC)
Assay type: in vivo, Fusarium oxysporum
Settings: @ 0.1%
Protocol: For wilt incidence study, seeds, seedlings and soil are treated with above mentioned three concentrations of microemulsion formulation. In brief, soil is autoclaved and artificially inoculated with Fusarium spores (@ 2.6×10^5 spores/g soil). Seeds are treated with microemulsion formulations by the method used for germination study, but herein, seeds are sowed directly into 1 kg diseased pot. For seedling treatment, healthy eight-leaf staged seedlings of tomato are treated with three respective concentrations of microemulsion while in case of soil treatment; soil of pot is treated @ 5 ml per 150 cc soil. Healthy and untreated seedlings are taken as control. Each treatment has 5 replicates and all the pots are kept in the net house in Micro model, IITD for 45 days. Carbendazim (@0.1%) is taken as chemical control. For accessing the disease progression in the tomato plant, following grading system is used. Symptoms like yellowing of leaves, wilting of plant, height and weight of plant are examined and given a grade by comparing with the control having maximum diseases infection.
Area under the disease progress curve (AUDPC) is a method to calculate the percentage inhibition of wilt disease and is calculated as:
AUDPC=Σ[(Ri+1+Ri)/2][ti+1−ti], R=disease rating at the ith observation ti=time (days) since previous ratings at the ith observation, n=total number of observations.

With `COC(=O)Nc1nc2ccccc2[nH]1` [carbendazim, Carbendazim] the “Disease reduction % of FoL” value (Seedling treatment) was 60.02% and the “Disease reduction % of FoL” value (Soil treatment) was 71.24%.

Reference: patent US20200281194A1, “A Novel Green Micro-Emulsion for Controlling Fungal Wilt Diseases” (priority 2017, published 2020)
